Values quoted from earlier work, collected in PMC6784055 (Toxins, 2019).

System: rat brain sodium channel
Conditions: relative to PbTx1

## C[C@@H]1C[C@@H]2O[C@@H]3[C@@H](C)[C@H](O)[C@@H]4O[C@]5(C[C@H](O)CO5)[C@@H](C)[C@H](C)[C@H]4O[C@H]3C[C@H]2O[C@H]2C[C@H]3O[C@H]4C/C=C\C[C@H]5O[C@H]6C=C[C@H]7O[C@H]8[C@H](O)[C@H]9O[C@@H](/C=C/[C@H](O)CO)C=CC[C@@H]9O[C@@H]8C[C@@H]7O[C@@H]6C=C[C@@H]5O[C@@H]4C[C@@H](O)[C@]3(C)O[C@@H]2C1 [ciguatoxin-1B]
  binding affinity stronger than that of PbTx1: 50 fold
